From PubChem BioAssay AID276 (DTP/NCI, 2004)
Several values for one entry are separate records, joined by “and”; a condition that tells them apart may be missing. Equal entries are not always repeated. Toxic doses and inconclusive results are not listed.

Test system: B6C3F1 mice, Lewis lung carcinoma iv, survival T/C
Experiment: NCI In Vivo Anticancer Drug Screen. Data for tumor model Lewis Lung Carcinoma (intravenous) in B6C3F1 mice
Details: endpoint: median survival time, higher = longer survival
Outline: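 Tumors were transplanted into mice, which were then dosed with compound or vehicle. Survival was recorded in each group, and the treated figure was divided by the control figure.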

[1] = dose: 3.12 mg/kg/injection, schedule: Q01DX009 (ip), vehicle: saline with Tween-80
[2] = dose: 6.25 mg/kg/injection, schedule: Q01DX009 (ip), vehicle: saline with Tween-80
[3] = dose: 12.5 mg/kg/injection, schedule: Q01DX009 (ip), vehicle: saline with Tween-80
[4] = dose: 25.0 mg/kg/injection, schedule: Q01DX009 (ip), vehicle: saline with Tween-80
[5] = dose: 50.0 mg/kg/injection, schedule: Q01DX009 (ip), vehicle: saline with Tween-80
[6] = dose: 100.0 mg/kg/injection, schedule: Q01DX009 (ip), vehicle: saline with Tween-80
[7] = dose: 200.0 mg/kg/injection, schedule: Q01DX009 (ip), vehicle: saline with Tween-80

Compound: O=P(O)(NCCCl)NCCCl
- T/C (dose: 25.0 mg/kg/injection, schedule: Q01DX001 (ip), vehicle: saline with Tween-80): 108 % of control
- T/C (dose: 100.0 mg/kg/injection, schedule: Q01DX001 (ip), vehicle: saline with Tween-80): 184 % of control and 226 % of control and 312 % of control
- T/C (dose: 200.0 mg/kg/injection, schedule: Q01DX001 (ip), vehicle: saline with Tween-80): 281 % of control

Compound: Cc1noc(N)c1N
- T/C (dose: 12.5 mg/kg/injection, schedule: Q01DX009 (ip), vehicle: water): 101 % of control
- T/C (dose: 25.0 mg/kg/injection, schedule: Q01DX009 (ip), vehicle: water): 95 % of control
- T/C (dose: 50.0 mg/kg/injection, schedule: Q01DX009 (ip), vehicle: water): 102 % of control
- T/C (dose: 100.0 mg/kg/injection, schedule: Q01DX009 (ip), vehicle: water): 92 % of control
- T/C (dose: 200.0 mg/kg/injection, schedule: Q01DX009 (ip), vehicle: water): 98 % of control
- T/C (dose: 400.0 mg/kg/injection, schedule: Q01DX009 (ip), vehicle: water): 106 % of control

Compound: CCC(C)Nc1ccc(N)cc1 (stereo unspecified)
- T/C (dose: 1.5 mg/kg/injection, schedule: Q01DX009 (ip), vehicle: Klucel (hydroxypropylcellulose) (HPC)): 86 % of control
- T/C (dose: 3.0 mg/kg/injection, schedule: Q01DX009 (ip), vehicle: Klucel (hydroxypropylcellulose) (HPC)): 98 % of control
- T/C (dose: 6.0 mg/kg/injection, schedule: Q01DX009 (ip), vehicle: Klucel (hydroxypropylcellulose) (HPC)): 94 % of control
- T/C (dose: 12.0 mg/kg/injection, schedule: Q01DX009 (ip), vehicle: Klucel (hydroxypropylcellulose) (HPC)): 93 % of control

Compound: CC[PH+](CC)CC[S-].CC[PH+](CC)CC[S-].[Au+].[Au+]
- T/C (dose: 2.5 mg/kg/injection, schedule: Q01DX009 (ip), vehicle: Klucel (hydroxypropylcellulose) (HPC)): 99 % of control
- T/C (dose: 5.0 mg/kg/injection, schedule: Q01DX009 (ip), vehicle: Klucel (hydroxypropylcellulose) (HPC)): 100 % of control
- T/C (dose: 10.0 mg/kg/injection, schedule: Q01DX009 (ip), vehicle: Klucel (hydroxypropylcellulose) (HPC)): 98 % of control
- T/C (dose: 20.0 mg/kg/injection, schedule: Q01DX009 (ip), vehicle: Klucel (hydroxypropylcellulose) (HPC)): 96 % of control

Compound: Cc1ccc2c(ccc(/C=C/c3ccc(O)c4ncccc34)[n+]2C)c1
- T/C (dose: 12.5 mg/kg/injection, schedule: Q01DX009 (ip), vehicle: saline): 100 % of control
- T/C (dose: 25.0 mg/kg/injection, schedule: Q01DX009 (ip), vehicle: saline): 86 % of control

Compound: C=C(OP(=O)(OC)OC)Sc1ccccc1C
- T/C (dose: 0.06 mg/kg/injection, schedule: Q01DX009 (ip), vehicle: Klucel (hydroxypropylcellulose) (HPC)): 105 % of control
- T/C (dose: 0.12 mg/kg/injection, schedule: Q01DX009 (ip), vehicle: Klucel (hydroxypropylcellulose) (HPC)): 104 % of control
- T/C (dose: 0.25 mg/kg/injection, schedule: Q01DX009 (ip), vehicle: Klucel (hydroxypropylcellulose) (HPC)): 110 % of control
- T/C (dose: 0.37 mg/kg/injection, schedule: Q01DX009 (ip), vehicle: Klucel (hydroxypropylcellulose) (HPC)): 100 % of control
- T/C (dose: 0.5 mg/kg/injection, schedule: Q01DX009 (ip), vehicle: Klucel (hydroxypropylcellulose) (HPC)): 89 % of control
- T/C (dose: 0.75 mg/kg/injection, schedule: Q01DX009 (ip), vehicle: Klucel (hydroxypropylcellulose) (HPC)): 91 % of control

Compound: CCCCCCCC(=O)N/N=C(\CO)[C@]1(O)Cc2c(O)c3c(c(O)c2[C@@H](OC2CC(N)C(O)C(C)O2)C1)C(=O)c1c(OC)cccc1C3=O (stereo partly specified)
- T/C (dose: 1.5 mg/kg/injection, schedule: Q01DX009 (ip), vehicle: saline): 100 % of control
- T/C (dose: 1.5 mg/kg/injection, schedule: Q01DX009 (ip), vehicle: water): 108 % of control
- T/C (dose: 3.0 mg/kg/injection, schedule: Q01DX009 (ip), vehicle: saline): 102 % of control
- T/C (dose: 3.0 mg/kg/injection, schedule: Q01DX009 (ip), vehicle: water): 104 % of control
- T/C (dose: 6.0 mg/kg/injection, schedule: Q01DX009 (ip), vehicle: saline): 105 % of control
- T/C (dose: 6.0 mg/kg/injection, schedule: Q01DX009 (ip), vehicle: water): 99 % of control
- T/C (dose: 12.0 mg/kg/injection, schedule: Q01DX009 (ip), vehicle: saline): 112 % of control
- T/C (dose: 12.0 mg/kg/injection, schedule: Q01DX009 (ip), vehicle: water): 92 % of control
- T/C (dose: 24.0 mg/kg/injection, schedule: Q01DX009 (ip), vehicle: saline): 87 % of control

Compound: CCCCN(CCCC)C(Cl)=Nc1ccccc1
- T/C (dose: 6.25 mg/kg/injection, schedule: Q01DX009 (ip), vehicle: Klucel (hydroxypropylcellulose) (HPC)): 106 % of control
- T/C (dose: 12.5 mg/kg/injection, schedule: Q01DX009 (ip), vehicle: Klucel (hydroxypropylcellulose) (HPC)): 107 % of control
- T/C (dose: 25.0 mg/kg/injection, schedule: Q01DX009 (ip), vehicle: Klucel (hydroxypropylcellulose) (HPC)): 94 % of control
- T/C (dose: 50.0 mg/kg/injection, schedule: Q01DX009 (ip), vehicle: Klucel (hydroxypropylcellulose) (HPC)): 96 % of control
- T/C (dose: 100.0 mg/kg/injection, schedule: Q01DX009 (ip), vehicle: Klucel (hydroxypropylcellulose) (HPC)): 98 % of control

Compound: CC(C)(C)N1CC1CNC(=O)C(=O)NCC1CN1C(C)(C)C (stereo unspecified)
- T/C (dose: 0.39 mg/kg/injection, schedule: Q01DX009 (ip), vehicle: saline with Tween-80): 99 % of control
- T/C (dose: 0.78 mg/kg/injection, schedule: Q01DX009 (ip), vehicle: saline with Tween-80): 102 % of control and 108 % of control
- T/C (dose: 1.56 mg/kg/injection, schedule: Q01DX009 (ip), vehicle: saline with Tween-80): 105 % of control and 106 % of control
- T/C [1]: 101 % of control and 122 % of control
- T/C [2]: 104 % of control and 111 % of control
- T/C [3]: 108 % of control and 123 % of control

Compound: O=C1C=C[C@H](O)[C@@]2(CO)O[C@@H]12
- T/C (dose: 0.31 mg/kg/injection, schedule: Q01DX009 (ip), vehicle: saline with Tween-80): 101 % of control
- T/C (dose: 0.62 mg/kg/injection, schedule: Q01DX009 (ip), vehicle: saline with Tween-80): 101 % of control
- T/C (dose: 1.25 mg/kg/injection, schedule: Q01DX009 (ip), vehicle: saline with Tween-80): 114 % of control
- T/C (dose: 2.5 mg/kg/injection, schedule: Q01DX009 (ip), vehicle: saline with Tween-80): 98 % of control
- T/C (dose: 5.0 mg/kg/injection, schedule: Q01DX009 (ip), vehicle: saline with Tween-80): 102 % of control
- T/C (dose: 10.0 mg/kg/injection, schedule: Q01DX009 (ip), vehicle: saline with Tween-80): 93 % of control

Compound: O=C(O)[C@H](Cc1ccccc1)N1C(=O)c2ccccc2C1=O
- T/C (dose: 3.12 mg/kg/injection, schedule: Q01DX009 (ip), vehicle: DMSO): 102 % of control
- T/C (dose: 6.25 mg/kg/injection, schedule: Q01DX009 (ip), vehicle: DMSO): 105 % of control
- T/C (dose: 12.5 mg/kg/injection, schedule: Q01DX009 (ip), vehicle: DMSO): 105 % of control
- T/C (dose: 25.0 mg/kg/injection, schedule: Q01DX009 (ip), vehicle: DMSO): 100 % of control
- T/C (dose: 50.0 mg/kg/injection, schedule: Q01DX009 (ip), vehicle: DMSO): 98 % of control

Compound: C#CCNC1=C(C)C(=O)C2=C(C1=O)[C@H](COC(N)=O)[C@]1(OC)[C@@H]3N[C@@H]3CN21
- T/C (dose: 6.25 mg/kg/injection, schedule: Q01DX009 (ip), vehicle: distilled water + Tween-80): 102 % of control

Compound: S=c1nc[nH]c2nc[nH]c12
- T/C (dose: 15.0 mg/kg/injection, schedule: Q01DX009 (ip), vehicle: Klucel (hydroxypropylcellulose) (HPC)): 107 % of control
- T/C (dose: 30.0 mg/kg/injection, schedule: Q01DX009 (ip), vehicle: Klucel (hydroxypropylcellulose) (HPC)): 116 % of control

Compound: COc1cccc2c1C(=N)c1c(O)c3c(c(O)c1C2=O)C[C@@](O)(C(C)=O)C[C@@H]3OC1CC(N)C(O)C(C)O1 (stereo partly specified)
- T/C (dose: 1.0 mg/kg/injection, schedule: Q01DX009 (ip), vehicle: saline): 103 % of control
- T/C (dose: 2.0 mg/kg/injection, schedule: Q01DX009 (ip), vehicle: saline): 96 % of control
- T/C (dose: 4.0 mg/kg/injection, schedule: Q01DX009 (ip), vehicle: saline): 105 % of control

Compound: Nc1nnc[se]1
- T/C [1]: 122 % of control
- T/C [2]: 123 % of control
- T/C [3]: 123 % of control

Compound: CC1(C)CC2(C)OC2C2(C1)N=NC(=Nc1ccccc1)O2 (stereo unspecified)
- T/C [4]: 97 % of control
- T/C [5]: 100 % of control
- T/C [6]: 106 % of control

Compound: CC[C@H](CC[C@@H](C)C1CC[C@H]2[C@@H]3CC=C4C[C@@H](OP(=O)(N5CC5)N5CC5)CC[C@]4(C)[C@H]3CC[C@]12C)C(C)C (stereo partly specified)
- T/C [3]: 100 % of control
- T/C [4]: 95 % of control
- T/C [5]: 97 % of control
- T/C [6]: 100 % of control
- T/C [7]: 95 % of control

Compound: O=C1SC(c2ccccc2)=S=C1c1ccccc1
- T/C [4]: 100 % of control
- T/C [5]: 93 % of control
- T/C [6]: 95 % of control
- T/C [7]: 104 % of control
- T/C (dose: 400.0 mg/kg/injection, schedule: Q01DX009 (ip), vehicle: saline with Tween-80): 108 % of control

Compound: CC(=O)O[C@@]1(C)[C@@H](C)C(=O)O[C@@H]2CCN3CC=C(COC(=O)[C@]1(C)O)[C@H]23
- T/C [4]: 110 % of control
- T/C [5]: 113 % of control
- T/C [6]: 285 % of control
